Blank lines part the entries; values can stand above or below the compound they belong to.
Target: T1, Bcl-2 protein (Recombinant Human Bcl-2 Protein) (Homo sapiens, UniProt P10415)
T1 construct: purchased Novus NBP2-34889
Test: Binding evaluation of mixture library compounds to Bcl-2 using AS-MS (affinity selection mass spectrometry)
Details: for ASMS ratio (%) n = 1: replicate n = 1; for ASMS ratio (%) n = 1 / ASMS ratio (%) n = 2: ASMS Ratio(%)=(A−C)/B×100; for ASMS ratio (%) n = 2: replicate n = 2
Procedure, shortened: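 Pooled library of ~1200 compounds ([…] each, final) incubated with recombinant human Bcl-2 (20 μM final) in Tris-HCl pH 7.4, NaCl, Tween-20, DTT buffer, dark, 23° C., 1 h. Bound fraction recovered by SEC spin column, organic extraction, reversed-phase LC/MS. ASMS Ratio (%) = (A−C)/B×100 versus protein-free standard and SEC blank.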

[1] = AS-MS, mixture of 1200 compounds, Bcl-2
[2] = AS-MS on the mixture of 1200 library compounds

T1 sequence (P10415 whole entry): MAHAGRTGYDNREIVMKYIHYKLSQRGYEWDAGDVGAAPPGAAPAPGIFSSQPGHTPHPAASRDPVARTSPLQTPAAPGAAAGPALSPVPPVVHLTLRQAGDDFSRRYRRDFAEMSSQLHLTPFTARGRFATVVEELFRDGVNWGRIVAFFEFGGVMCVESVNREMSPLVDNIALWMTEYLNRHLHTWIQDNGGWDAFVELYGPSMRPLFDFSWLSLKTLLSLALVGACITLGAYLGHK

Compound: CCOc1cccc(-c2ccc(CN3CCN(c4ccc(C(=O)NS(=O)(=O)CC56CC7CC(CC(C7)C5)C6)nn4)CC3)c3ccccc23)c1 [B2A091-01, N-(1-Adamantylmethylsulfonyl)-6-[4-[[4-(3-ethoxyphenyl)naphthalen-1-yl]methyl]piperazin-1-yl]pyridazine-3-carboxamide]
ASMS ratio (%) n = 1 (AS-MS, mixture library, Bcl-2): −2.6% | ASMS ratio (%) n = 2 (AS-MS, mixture library, Bcl-2): 3.8%

Compound: 4-[4-[3-[2-(5-Ethoxypyridin-3-yl)ethynyl]-5-(trifluoromethyl)benzoyl]piperazin-1-yl]-N-propylbenzamide [B1M019-01]
ASMS ratio (%) n = 1 [1]: 1.5% | ASMS ratio (%) n = 2 [1]: 0.0%

Compound: 6-[4-[[4-(5-Ethoxypyridin-3-yl)-3-fluorophenyl]methyl]piperazin-1-yl]-N-propylpyridazine-3-carboxamide [B1M086-01]
ASMS ratio (%) n = 1 [2]: 0.0% | ASMS ratio (%) n = 2 [2]: 0.0%

Compound: CCOc1cccc(-c2cc(C(=O)N3CCN(c4ccc(C(=O)Nc5ccc(OC)cc5)cc4)CC3)cc(C(F)(F)F)c2)c1 [B1O039-01, 4-[4-[3-(3-Ethoxyphenyl)-5-(trifluoromethyl)benzoyl]piperazin-1-yl]-N-(4-methoxyphenyl)benzamide]
ASMS ratio (%) n = 1 [2]: 5.1% | ASMS ratio (%) n = 2 [2]: 0.2%

Compound: CCOc1cccc(C#Cc2cncc(C(=O)N3CCN(c4ccc(C(=O)NS(C)(=O)=O)nn4)CC3)c2)c1 [B2I009-01, 6-[4-[5-[2-(3-Ethoxyphenyl)ethynyl]pyridine-3-carbonyl]piperazin-1-yl]-N-methylsulfonylpyridazine-3-carboxamide]
ASMS ratio (%) n = 1 (AS-MS, mixture library, Bcl-2): 0.0% | ASMS ratio (%) n = 2 (AS-MS, mixture library, Bcl-2): 0.0%

Compound: CCOc1cccc(-c2ccc(C(=O)N3CCN(c4ccc(C(=O)N(CC)CC)cc4)CC3)cc2F)c1 [B4J027-01, 4-[4-[4-(3-Ethoxyphenyl)-3-fluorobenzoyl]piperazin-1-yl]-N,N-diethylbenzamide]
ASMS ratio (%) n = 1 [2]: −0.5% | ASMS ratio (%) n = 2 [2]: 0.2%

Compound: CCOc1cccc(-c2cnn(-c3cc(C(=O)N4CCN(c5ccc(C(=O)NS(=O)(=O)CC67CC8CC(CC(C8)C6)C7)cc5)CC4)cc(C(F)(F)F)c3)c2)c1 [B2A043-01, N-(1-Adamantylmethylsulfonyl)-4-[4-[3-[4-(3-ethoxyphenyl)pyrazol-1-yl]-5-(trifluoromethyl)benzoyl]piperazin-1-yl]benzamide]
ASMS ratio (%) n = 1 (AS-MS, mixture library, Bcl-2): 14.0% | ASMS ratio (%) n = 2 (AS-MS, mixture library, Bcl-2): 4.4%

Compound: CCOc1cccc(-c2cc(CN3CCN(c4ccc(C(=O)NCC56CC7CC(CC(C7)C5)C6)cc4)CC3)cc(C(F)(F)F)c2)c1 [B1A061-01, N-(1-Adamantylmethyl)-4-[4-[[3-(3-ethoxyphenyl)-5-(trifluoromethyl)phenyl]methyl]piperazin-1-yl]benzamide]
ASMS ratio (%) n = 1 [1]: 5.3% | ASMS ratio (%) n = 2 [1]: 1.1%

Compound: CCOc1cncc(-c2ccc(C(=O)N3CCN(c4ccc(C(=O)NS(=O)(=O)CC56CC7CC(CC(C7)C5)C6)nn4)CC3)c3ccccc23)c1 [B2A014-01, N-(1-Adamantylmethylsulfonyl)-6-[4-[4-(5-ethoxypyridin-3-yl)naphthalene-1-carbonyl]piperazin-1-yl]pyridazine-3-carboxamide]
ASMS ratio (%) n = 1 (AS-MS, mixture library, Bcl-2): 7.7% | ASMS ratio (%) n = 2 (AS-MS, mixture library, Bcl-2): 2.2%

Compound: CCOc1cncc(-c2cc(C(=O)N3CCN(c4ccc(C(=O)NCC(F)(F)F)nn4)CC3)cc(C(C)(C)C)c2)c1 [B1K016-01, 6-[4-[3-tert-Butyl-5-(5-ethoxypyridin-3-yl)benzoyl]piperazin-1-yl]-N-(2,2,2-trifluoroethyl)pyridazine-3-carboxamide]
ASMS ratio (%) n = 1 [1]: 0.0% | ASMS ratio (%) n = 2 [1]: 0.0%

Compound: CCOc1cncc(-c2ccc(CN3CCN(c4ccc(C(=O)NCC56CC7CC(CC(C7)C5)C6)nn4)CC3)cc2F)c1 [B1A078-01, N-(1-Adamantylmethyl)-6-[4-[[4-(5-ethoxypyridin-3-yl)-3-fluorophenyl]methyl]piperazin-1-yl]pyridazine-3-carboxamide]
ASMS ratio (%) n = 1 [1]: 4.7% | ASMS ratio (%) n = 2 [1]: 1.2%

Compound: CCOc1cccc(-c2csc(CN3CCN(c4ccc(C(=O)Nc5ccc(OC)cc5)nn4)CC3)c2)c1 [B1O093-01, 6-[4-[[4-(3-Ethoxyphenyl)thiophen-2-yl]methyl]piperazin-1-yl]-N-(4-methoxyphenyl)pyridazine-3-carboxamide]
ASMS ratio (%) n = 1 [2]: 0.0% | ASMS ratio (%) n = 2 [2]: 0.6%

Results, then the compound that gave them:

ASMS ratio (%) (n = 1): 0.0% | ASMS ratio (%) (n = 2): 0.0%
Compound: CCOc1cccc(-c2ccccc2CN2CCN(c3ccc(C(=O)NS(=O)(=O)CCC(F)(F)F)nn3)CC2)c1 [B2N071-01, 6-[4-[[2-(3-Ethoxyphenyl)phenyl]methyl]piperazin-1-yl]-N-(3,3,3-trifluoropropylsulfonyl)pyridazine-3-carboxamide]

ASMS ratio (%) (n = 1): 0.0% | ASMS ratio (%) (n = 2): 0.0%
Compound: CCOc1cncc(C#Cc2cncc(C(=O)N3CCN(c4ccc(C(=O)NS(=O)(=O)C(C)(C)C)nn4)CC3)c2)c1 [B2L010-01, N-tert-Butylsulfonyl-6-[4-[5-[2-(5-ethoxypyridin-3-yl)ethynyl]pyridine-3-carbonyl]piperazin-1-yl]pyridazine-3-carboxamide]

ASMS ratio (%) (n = 1): 0.0% | ASMS ratio (%) (n = 2): 0.0%
Compound: CCOc1cncc(-c2csc(C(=O)N3CCN(c4ccc(C(=O)NS(=O)(=O)C(C)(C)C)cc4)CC3)c2)c1 [B2L024-01, N-tert-Butylsulfonyl-4-[4-[4-(5-ethoxypyridin-3-yl)thiophene-2-carbonyl]piperazin-1-yl]benzamide]

ASMS ratio (%) n = 1 (AS-MS, mixture library, Bcl-2): 14.3% | ASMS ratio (%) n = 2 (AS-MS, mixture library, Bcl-2): −9.0%
Compound: CCOc1cncc(C#Cc2ccccc2CN2CCN(c3ccc(C(=O)NS(=O)(=O)c4ccc(NCCSc5ccccc5)c([N+](=O)[O-])c4)cc3)CC2)c1 [B2Q070-01, 4-[4-[[2-[2-(5-Ethoxypyridin-3-yl)ethynyl]phenyl]methyl]piperazin-1-yl]-N-[3-nitro-4-(2-phenylsulfanylethylamino)phenyl]sulfonylbenzamide]

ASMS ratio (%) (n = 1): 0.0% | ASMS ratio (%) (n = 2): 0.0%
Compound: CCOc1cccc(-c2ccccc2CCC(=O)N2CCN(c3ccc(C(=O)NS(=O)(=O)C(C)(C)C)cc3)CC2)c1 [B2L033-01, N-tert-Butylsulfonyl-4-[4-[3-[2-(3-ethoxyphenyl)phenyl]propanoyl]piperazin-1-yl]benzamide]

ASMS ratio (%) (n = 1): 0.0% | ASMS ratio (%) (n = 2): 0.0%
Compound: CCOc1cncc(-c2cc(C(=O)N3CCN(c4ccc(C(=O)NS(=O)(=O)C(C)(C)C)cc4)CC3)cc(C(C)(C)C)c2)c1 [B2L038-01, 4-[4-[3-tert-Butyl-5-(5-ethoxypyridin-3-yl)benzoyl]piperazin-1-yl]-N-tert-butylsulfonylbenzamide]

ASMS ratio (%) (n = 1): 0.0% | ASMS ratio (%) (n = 2): 0.0%
Compound: CCOc1cncc(-c2ccc(CN3CCN(c4ccc(C(=O)NS(C)(=O)=O)cc4)CC3)cc2F)c1 [B2I052-01, 4-[4-[[4-(5-Ethoxypyridin-3-yl)-3-fluorophenyl]methyl]piperazin-1-yl]-N-methylsulfonylbenzamide]

ASMS ratio (%) n = 1 [2]: 4.5% | ASMS ratio (%) n = 2 [2]: −1.5%
Compound: CCOc1cncc(-c2ccc(CN3CCN(c4ccc(C(=O)N(C)CC56CC7CC(CC(C7)C5)C6)nn4)CC3)cc2F)c1 [B3A078-01, N-(1-Adamantylmethyl)-6-[4-[[4-(5-ethoxypyridin-3-yl)-3-fluorophenyl]methyl]piperazin-1-yl]-N-methylpyridazine-3-carboxamide]

ASMS ratio (%) (n = 1): 0.0% | ASMS ratio (%) (n = 2): 1.0%
Compound: CCOc1cncc(-c2cc(C(=O)N3CCN(c4ccc(C(=O)NS(=O)(=O)CCC(F)(F)F)nn4)CC3)cc(C(F)(F)F)c2)c1 [B2N018-01, 6-[4-[3-(5-Ethoxypyridin-3-yl)-5-(trifluoromethyl)benzoyl]piperazin-1-yl]-N-(3,3,3-trifluoropropylsulfonyl)pyridazine-3-carboxamide]

ASMS ratio (%) n = 1 (AS-MS, mixture library, Bcl-2): −4.0% | ASMS ratio (%) n = 2 (AS-MS, mixture library, Bcl-2): −0.2%
Compound: CCOc1cncc(-c2ccccc2CCC(=O)N2CCN(c3ccc(C(=O)NS(C)(=O)=O)nn3)CC2)c1 [B2I012-01, 6-[4-[3-[2-(5-Ethoxypyridin-3-yl)phenyl]propanoyl]piperazin-1-yl]-N-methylsulfonylpyridazine-3-carboxamide]

ASMS ratio (%) (n = 1): 0.2% | ASMS ratio (%) (n = 2): 1.4%
Compound: CCOc1cncc(-c2cnn(-c3cc(C(=O)N4CCN(c5ccc(C(=O)NS(=O)(=O)CCC(F)(F)F)cc5)CC4)cc(C(F)(F)F)c3)c2)c1 [B2N044-01, 4-[4-[3-[4-(5-Ethoxypyridin-3-yl)pyrazol-1-yl]-5-(trifluoromethyl)benzoyl]piperazin-1-yl]-N-(3,3,3-trifluoropropylsulfonyl)benzamide]

ASMS ratio (%) n = 1 [2]: −5.8% | ASMS ratio (%) n = 2 [2]: 5.4%
Compound: CCOc1cccc(-c2ccc(CN3CCN(c4ccc(C(=O)N(C)CC56CC7CC(CC(C7)C5)C6)nn4)CC3)c(OC)c2)c1 [B3A079-01, N-(1-Adamantylmethyl)-6-[4-[[4-(3-ethoxyphenyl)-2-methoxyphenyl]methyl]piperazin-1-yl]-N-methylpyridazine-3-carboxamide]

ASMS ratio (%) n = 1 (AS-MS, mixture library, Bcl-2): 4.2% | ASMS ratio (%) n = 2 (AS-MS, mixture library, Bcl-2): −2.3%
Compound: CCOc1cccc(-c2ccccc2CCC(=O)N2CCN(c3ccc(C(=O)NS(=O)(=O)c4ccc(NCCSc5ccccc5)c([N+](=O)[O-])c4)cc3)CC2)c1 [B2Q033-01, 4-[4-[3-[2-(3-Ethoxyphenyl)phenyl]propanoyl]piperazin-1-yl]-N-[3-nitro-4-(2-phenylsulfanylethylamino)phenyl]sulfonylbenzamide]
